The values that follow come from patent publication US4205080A, “2,3-Dihydro benzofuran carboxamides” (Shell Oil Company, priority 1979, dated 1980).

Molecules are shown by their SMILES.

The assay relates to swine adipose tissue. The assay can be described thus: inhibition of lipogenesis (lipid synthesis from radioactive glucose) in slices of swine adipose tissue. Type of assay: cell-based. As to conditions: 100 micrograms per milliliter test compound; 37° C., 2 hours; glucose-U^14 C; 300 microunits of insulin; 5% DMSO; triplicate. The text has this: The manner in which they cause this effect is not known with certainty; it is believed that they interfere with the synthesis of fatty acids in the tissues. Their effectiveness for this purpose has been ascertained by immersing samples of swine adipose tissue in a liquid medium containing radioactive glucose and the test chemical for a period of time, then isolating the lipid from the treated tissue and determining the up-take of the radioactive carbon by means of scintillation counting techniques. These tests were conducted in swine adipose tissue because in swine, the primary site of lipogenesis--i.e., fatty acid synthesis--appears to be adipose tissue.
Described in more detail, the tests were conducted according to the following general procedure:
150 milligrams of slices of swine adipose tissue were incubated at 37° C. for 2 hours with shaking in 3 milliliters of Krebs-Ringer bicarbonate solution containing one-half of the normal calcium ion concentration, 60 micromoles of glucose, 0.5 micro-Curie of glucose-U^14 C, and 300 microunits of insulin, and 5% dimethyl sulfoxide (DMSO). The test compound was added as a solution or suspension in DMSO and was present as a concentration of 100 micrograms per milliliter of incubation mixture.
The incubation was terminated by addition of 0.25 milliliter of 1 N sulfuric acid. The resulting mixture was extracted with a total of 25 milliliters of chloroform:methanol (2:1, v/v). The extracts were washed according to Folch et al. (J. Biol. Chem., 226, 497-509, (1957)), air dried, and counted in a liquid scintillation counter with 15 milliliters of counting fluid (two parts toluene containing 0.4% w/v New England Nuclear Omnifluor: 1 part Triton X-100). The tests were conducted in triplicate and were accompanied by control tests in which all ingredients,proportions and conditions were the same except that no test compound was included. From the data obtained were calculated the percent inhibition of lipid synthesis by the test compound. The data obtained are reported as the percent inhibition of lipogenesis compared to the results obtained in the control tests wherein only the test compound was omitted.
For `C=CCNC(=O)C1Cc2cc(-c3ccccc3)ccc2O1` (stereo not shown) [Compound 1, 2,3-dihydro-5-phenyl-N-(2-propenyl)-2-benzofurancarboxamide], the “Percent Inhibition (of lipogenesis compared to control tests)” value is on record as 59%. The same measure for `C=CCNC(=O)C1Cc2cc(C(C)CC)ccc2O1` (stereo not shown) [Compound 2]: 66%. The result for `C=CCNC(=O)C1Cc2cc(C3CCCCC3)ccc2O1` (stereo not shown) [Compound 3] reads 43%; that for `C=CCNC(=O)C1Cc2cc(Cc3ccccc3)ccc2O1` (stereo not shown) [Compound 4], 64%; that for `C=CCNC(=O)C1Cc2c(Oc3ccccc3)cccc2O1` (stereo not shown) [Compound 5], 77%. The result for `C=CCNC(=O)C1Cc2cc(-c3ccc(C(C)O)cc3)ccc2O1` (stereo not shown) [Compound 6, 2,3-Dihydro-5-(4-(1-hydroxyethyl)phenyl)-N-(2-propenyl)-2-benzofurancarboxamide] reads 40%; that for `C=CCNC(=O)C1Cc2cc(-c3ccc(NC(C)=O)cc3)ccc2O1` (stereo not shown) [Compound 7, 5-(4-(Acetylamino)phenyl)-2,3-dihydro-N-(2-propenyl)-2-benzofurancarboxamide], 76%.
